Assay [1] deals with Mus musculus. The assay is described as follows: Compound was tested against P388 Leukemia cells in mouse at the dose of 50 mg/kg ip, activity expressed as T/C. The assay is classed as functional.
For assay [2], the target named is T1, Ornithine decarboxylase (Rattus norvegicus) (UniProt P09057).
T1 sequence (whole entry): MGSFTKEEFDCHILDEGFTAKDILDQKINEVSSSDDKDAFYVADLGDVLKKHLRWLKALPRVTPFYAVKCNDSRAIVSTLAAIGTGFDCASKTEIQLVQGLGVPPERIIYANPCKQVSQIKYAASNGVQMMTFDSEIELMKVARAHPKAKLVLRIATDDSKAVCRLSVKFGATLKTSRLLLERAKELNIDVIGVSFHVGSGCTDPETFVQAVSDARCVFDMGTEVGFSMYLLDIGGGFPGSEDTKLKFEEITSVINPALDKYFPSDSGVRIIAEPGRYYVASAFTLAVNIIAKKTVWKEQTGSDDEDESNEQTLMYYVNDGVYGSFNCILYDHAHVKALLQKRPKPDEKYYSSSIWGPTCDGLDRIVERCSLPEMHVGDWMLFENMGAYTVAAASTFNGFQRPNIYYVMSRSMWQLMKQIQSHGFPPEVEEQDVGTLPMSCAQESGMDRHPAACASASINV
Put plainly: Compound was tested for its inhibition against ornithine decarboxylase from rat liver at low concentration; NA means not active.

In assay [3] the test system is Mus musculus. The assay is described as follows: Compound was tested against P388 Leukemia cells in mouse at the dose of 150 mg/kg ip, activity expressed as T/C. The assay is classed as functional.

The source made the active and inactive calls. The calls are words filed in the database; no cut-off is given here.

On to `CCP(=O)(O)C(C)(N)CCCN.Cl` (stereo unspecified), for which the T/C in the assay on Mus musculus [1] and with Mus musculus [3] was 98 each time. Besides, the outcome in assay [2] was inactive.
Consider `CCP(=O)(O)C(N)CCCN.Cl` (stereo unspecified), for which the T/C in the assay on Mus musculus [1] and in the assay with Mus musculus [3] was 100 in each case. Also, in assay [2], the outcome was inactive.

For the origin of these results see ChEMBL document CHEMBL1123051, “In the search for new anticancer drugs. 13. Phosphonic and phosphinic analogues of ornithine” (1985).
